Test results taken from patent publication US11279707B2, “NEK inhibitors and methods of use” (DANA-FARBER CANCER INSTITUTE, INC., priority 2017, dated 2022).

Tests used:
Type in all cases: biochemical
[1] = molecular target: T1, DMPK (Homo sapiens, UniProt Q09013); experiment: kinase inhibition, DMPK
T1 sequence (Q09013 1-629): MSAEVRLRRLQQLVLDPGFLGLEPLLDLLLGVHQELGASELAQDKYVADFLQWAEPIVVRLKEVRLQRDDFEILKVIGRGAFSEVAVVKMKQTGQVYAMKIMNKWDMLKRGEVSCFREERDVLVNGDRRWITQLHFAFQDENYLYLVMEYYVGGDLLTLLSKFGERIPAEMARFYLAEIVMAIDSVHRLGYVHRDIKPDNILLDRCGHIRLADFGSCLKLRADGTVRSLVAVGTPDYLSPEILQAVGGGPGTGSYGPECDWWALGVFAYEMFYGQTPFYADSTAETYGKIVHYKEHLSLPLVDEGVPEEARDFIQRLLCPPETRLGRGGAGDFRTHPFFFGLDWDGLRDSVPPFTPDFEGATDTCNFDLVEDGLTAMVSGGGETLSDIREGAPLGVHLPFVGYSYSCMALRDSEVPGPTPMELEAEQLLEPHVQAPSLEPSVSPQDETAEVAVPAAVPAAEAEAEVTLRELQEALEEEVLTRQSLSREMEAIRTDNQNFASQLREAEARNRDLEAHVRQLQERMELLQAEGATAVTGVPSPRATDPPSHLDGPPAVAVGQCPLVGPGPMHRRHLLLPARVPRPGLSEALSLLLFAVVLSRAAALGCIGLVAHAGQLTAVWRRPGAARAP

[2] = molecular target: T2, NEK9 (Homo sapiens, UniProt Q8TD19); experiment: kinase inhibition, NEK9
T2 sequence (Q8TD19 1-979): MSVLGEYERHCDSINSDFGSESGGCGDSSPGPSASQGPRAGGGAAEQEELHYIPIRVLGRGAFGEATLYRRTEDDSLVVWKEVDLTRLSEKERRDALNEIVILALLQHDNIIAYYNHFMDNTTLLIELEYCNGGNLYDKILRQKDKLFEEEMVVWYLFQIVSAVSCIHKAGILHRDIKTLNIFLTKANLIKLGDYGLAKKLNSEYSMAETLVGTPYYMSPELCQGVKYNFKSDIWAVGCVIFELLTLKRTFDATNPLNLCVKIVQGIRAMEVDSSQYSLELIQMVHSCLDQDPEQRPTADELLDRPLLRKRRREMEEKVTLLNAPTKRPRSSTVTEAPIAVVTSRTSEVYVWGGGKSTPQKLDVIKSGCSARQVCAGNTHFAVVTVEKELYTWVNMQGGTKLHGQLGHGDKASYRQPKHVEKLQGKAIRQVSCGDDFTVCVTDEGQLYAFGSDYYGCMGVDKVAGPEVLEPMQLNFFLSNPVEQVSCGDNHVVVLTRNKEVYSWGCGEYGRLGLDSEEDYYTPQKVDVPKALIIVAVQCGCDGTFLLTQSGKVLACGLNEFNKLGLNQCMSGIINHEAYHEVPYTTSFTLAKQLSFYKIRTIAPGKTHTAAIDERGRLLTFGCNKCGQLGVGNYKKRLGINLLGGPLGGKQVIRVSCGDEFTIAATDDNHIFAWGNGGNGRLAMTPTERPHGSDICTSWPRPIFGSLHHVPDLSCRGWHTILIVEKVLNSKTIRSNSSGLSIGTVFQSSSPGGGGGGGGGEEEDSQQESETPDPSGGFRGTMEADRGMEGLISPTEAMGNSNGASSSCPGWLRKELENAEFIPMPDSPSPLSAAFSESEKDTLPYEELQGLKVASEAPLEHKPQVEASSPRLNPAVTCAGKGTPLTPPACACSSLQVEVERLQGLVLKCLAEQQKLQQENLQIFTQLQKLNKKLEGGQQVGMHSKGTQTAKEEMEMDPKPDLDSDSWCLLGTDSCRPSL

[3] = molecular target: NEK7 (Homo sapiens, UniProt Q8TDX7); experiment: kinase inhibition, NEK7
Chain of NEK7 (Q8TDX7 whole entry, species assumed): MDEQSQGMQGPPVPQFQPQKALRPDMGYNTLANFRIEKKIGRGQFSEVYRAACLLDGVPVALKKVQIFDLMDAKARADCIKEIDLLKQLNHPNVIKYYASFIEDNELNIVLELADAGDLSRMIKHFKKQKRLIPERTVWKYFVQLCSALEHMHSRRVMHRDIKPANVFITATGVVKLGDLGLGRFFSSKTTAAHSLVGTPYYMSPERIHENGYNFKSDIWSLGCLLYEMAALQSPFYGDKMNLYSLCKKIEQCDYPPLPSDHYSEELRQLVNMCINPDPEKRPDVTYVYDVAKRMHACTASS

[4] = molecular target: NEK6 (Homo sapiens, UniProt Q9HC98); experiment: kinase inhibition, NEK6
Chain of NEK6 (Q9HC98 whole entry, species assumed): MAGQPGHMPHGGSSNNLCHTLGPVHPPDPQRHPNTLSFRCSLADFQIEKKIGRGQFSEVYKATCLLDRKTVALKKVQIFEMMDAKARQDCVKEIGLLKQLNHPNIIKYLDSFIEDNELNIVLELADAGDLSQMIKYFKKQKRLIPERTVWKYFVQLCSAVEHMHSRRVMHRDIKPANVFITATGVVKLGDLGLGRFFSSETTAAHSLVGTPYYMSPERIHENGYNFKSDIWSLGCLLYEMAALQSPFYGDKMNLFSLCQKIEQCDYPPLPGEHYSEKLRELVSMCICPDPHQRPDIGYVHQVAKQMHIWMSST

[5] = molecular target: CLK; experiment: kinase inhibition, CLK
[6] = molecular target: T3, NEK2 (Homo sapiens, UniProt P51955); experiment: kinase inhibition, NEK2
T3 sequence (P51955 1-445): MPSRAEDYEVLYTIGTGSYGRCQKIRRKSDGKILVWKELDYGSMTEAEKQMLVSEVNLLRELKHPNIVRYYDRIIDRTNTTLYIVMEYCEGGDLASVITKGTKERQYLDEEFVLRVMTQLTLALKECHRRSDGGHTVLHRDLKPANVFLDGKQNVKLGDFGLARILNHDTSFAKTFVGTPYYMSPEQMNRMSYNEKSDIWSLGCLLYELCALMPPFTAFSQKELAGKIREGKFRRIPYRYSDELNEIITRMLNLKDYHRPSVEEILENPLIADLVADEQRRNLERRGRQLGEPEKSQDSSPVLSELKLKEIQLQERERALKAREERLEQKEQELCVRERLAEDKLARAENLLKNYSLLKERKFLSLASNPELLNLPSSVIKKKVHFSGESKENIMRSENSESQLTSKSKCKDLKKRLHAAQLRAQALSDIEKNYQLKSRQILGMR

[7] = molecular target: SLK (Homo sapiens, UniProt Q9H2G2); experiment: kinase inhibition, SLK
Chain of SLK (Q9H2G2 whole entry): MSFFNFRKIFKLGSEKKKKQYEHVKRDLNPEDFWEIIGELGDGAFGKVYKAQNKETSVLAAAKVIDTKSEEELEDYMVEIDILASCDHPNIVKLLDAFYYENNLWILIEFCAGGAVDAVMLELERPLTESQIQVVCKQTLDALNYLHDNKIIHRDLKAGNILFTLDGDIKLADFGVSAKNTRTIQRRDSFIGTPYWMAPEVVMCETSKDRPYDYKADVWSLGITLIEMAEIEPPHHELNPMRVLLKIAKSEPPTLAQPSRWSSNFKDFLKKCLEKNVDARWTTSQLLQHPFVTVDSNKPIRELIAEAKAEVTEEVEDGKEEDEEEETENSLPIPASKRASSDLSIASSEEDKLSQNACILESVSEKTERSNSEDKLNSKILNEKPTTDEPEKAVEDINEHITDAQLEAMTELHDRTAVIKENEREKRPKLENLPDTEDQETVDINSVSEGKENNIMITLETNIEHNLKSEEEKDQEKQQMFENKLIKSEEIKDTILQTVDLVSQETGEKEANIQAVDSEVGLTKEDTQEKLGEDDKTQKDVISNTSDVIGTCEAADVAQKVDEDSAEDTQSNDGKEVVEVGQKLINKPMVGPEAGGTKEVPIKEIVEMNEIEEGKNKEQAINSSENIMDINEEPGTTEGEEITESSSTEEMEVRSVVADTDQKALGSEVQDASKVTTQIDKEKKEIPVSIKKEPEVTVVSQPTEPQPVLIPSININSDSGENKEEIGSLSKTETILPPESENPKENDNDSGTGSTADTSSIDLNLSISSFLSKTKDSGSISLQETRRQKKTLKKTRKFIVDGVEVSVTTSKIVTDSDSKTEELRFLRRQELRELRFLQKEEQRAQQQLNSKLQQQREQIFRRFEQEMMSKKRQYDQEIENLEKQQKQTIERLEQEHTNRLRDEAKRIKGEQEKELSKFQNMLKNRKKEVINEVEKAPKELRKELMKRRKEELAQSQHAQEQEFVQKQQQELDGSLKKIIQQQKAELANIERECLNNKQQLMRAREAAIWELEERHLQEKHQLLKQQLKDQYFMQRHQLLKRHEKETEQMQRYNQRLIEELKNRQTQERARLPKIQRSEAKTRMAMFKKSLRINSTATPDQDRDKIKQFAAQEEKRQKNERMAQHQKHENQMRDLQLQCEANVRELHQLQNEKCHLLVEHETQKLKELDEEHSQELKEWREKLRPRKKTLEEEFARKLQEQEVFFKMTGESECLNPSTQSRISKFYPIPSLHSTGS

Structure (SMILES) | IC50 [1] [nM] | IC50 [2] [nM] | IC50 [3] [nM] | IC50 [4] [nM] | IC50 [5] [nM] | IC50 [6] [nM] | IC50 [7] [nM]
COc1cc(N2CCC(N3CCN(C)CC3)CC2)ccc1Nc1ncc2c(n1)n1c(cc3ccccc31)c(=O)n2C [Compound I-9] | 1000 to 5000 | ≤ 50 | 250 to 1000 | 250 to 1000 | 250 to 1000 | 50 to 250 | –
Cn1c(=O)c2cc3ccccc3n2c2nc(Nc3cnn(CCN4CCOCC4)c3)ncc21 [Compound I-10] | 250 to 1000 | 50 to 250 | 1000 to 5000 | ≥ 5000 | 1000 to 5000 | 50 to 250 | –
Cn1c(=O)c2cc3ccccc3n2c2nc(Nc3cnn(CC(F)F)c3)ncc21 [Compound I-11] | 1000 to 5000 | 50 to 250 | 1000 to 5000 | ≥ 5000 | ≥ 5000 | 250 to 1000 | –
COc1cc(C(=O)N2CCN(C)CC2)ccc1Nc1ncc2c(n1)n1c(cc3ccccc31)c(=O)n2C [Compound I-12] | 1000 to 5000 | 1000 to 5000 | 1000 to 5000 | 1000 to 5000 | 250 to 1000 | 50 to 250 | –
CN1CCN(c2ccc(Nc3ncc4c(n3)n3c(cc5ccccc53)c(=O)n4C)c(C(F)(F)F)c2)CC1 [Compound I-13] | ≥ 5000 | 1000 to 5000 | 250 to 1000 | 1000 to 5000 | ≥ 5000 | 50 to 250 | –
COc1cc(C(=O)N2CCOCC2)ccc1Nc1ncc2c(n1)n1c(cc3ccccc31)c(=O)n2C [Compound I-14] | 250 to 1000 | ≤ 50 | 50 to 250 | 1000 to 5000 | ≥ 5000 | 50 to 250 | –
CCN1CCN(c2ccc(Nc3ncc4c(n3)n3c(cc5ccccc53)c(=O)n4C)c(OC)c2)CC1 [Compound I-15] | 250 to 1000 | 50 to 250 | 250 to 1000 | 250 to 1000 | 250 to 1000 | ≤ 50 | –
CCN1CCN(c2ccc(Nc3ncc4c(n3)n3c(cc5ccccc53)c(=O)n4C)cc2)CC1 [Compound I-16] | 50 to 250 | ≤ 50 | 250 to 1000 | 250 to 1000 | 50 to 250 | ≤ 50 | –
Cn1c(=O)c2cc3ccccc3n2c2nc(Nc3ccc(N4CCC(N5CCOCC5)CC4)cc3)ncc21 [Compound I-17] | 50 to 250 | ≤ 50 | – | 250 to 1000 | 50 to 250 | ≤ 50 | 50 to 250
CCOc1cc(N2CCC(O)CC2)ccc1Nc1ncc2c(n1)n1c(cc3ccccc31)c(=O)n2C [Compound I-18] | ≥ 5000 | 250 to 1000 | 250 to 1000 | 250 to 1000 | ≥ 5000 | 50 to 250 | –
CC(C)Oc1cc(N2CCC(O)CC2)ccc1Nc1ncc2c(n1)n1c(cc3ccccc31)c(=O)n2C [Compound I-19] | ≥ 5000 | ≥ 5000 | 250 to 1000 | 1000 to 5000 | ≥ 5000 | ≥ 5000 | –
COc1cc(N2CCC(C(N)=O)CC2)ccc1Nc1ncc2c(n1)n1c(cc3ccccc31)c(=O)n2C [Compound I-20] | 1000 to 5000 | 50 to 250 | 50 to 250 | 250 to 1000 | 1000 to 5000 | 50 to 250 | –
